From patent US10730911B2, “Backbone-cyclized peptidomimetics with GLP-1R modulating activity” (POLYPHOR AG, priority 2015, dated 2020)
Where a SMILES comes first, the peptide text is derived from it. [ ]: non-standard residue; d: D form. The star is where a group is joined. Tyr(Ph) = N[C@@H](Cc1ccc(Oc2ccccc2)cc1)C(=O)O; His(π-Bn) = N[C@@H](Cc1cncn1Cc1ccccc1)C(=O)O; Phe(4-NH2) = Nc1ccc(C[C@H](N)C(=O)O)cc1; 3Pal = N[C@@H](Cc1cccnc1)C(=O)O; Ac6c = NC1(C(=O)O)CCCCC1; Bn = c1ccc(C*)cc1

Target: T1, human glucagon-like peptide-1 receptor (GLP-1R) (Homo sapiens, UniProt P43220)
T1 construct: host or cells: CHO chAMPion cells
T1 sequence (P43220 24-463): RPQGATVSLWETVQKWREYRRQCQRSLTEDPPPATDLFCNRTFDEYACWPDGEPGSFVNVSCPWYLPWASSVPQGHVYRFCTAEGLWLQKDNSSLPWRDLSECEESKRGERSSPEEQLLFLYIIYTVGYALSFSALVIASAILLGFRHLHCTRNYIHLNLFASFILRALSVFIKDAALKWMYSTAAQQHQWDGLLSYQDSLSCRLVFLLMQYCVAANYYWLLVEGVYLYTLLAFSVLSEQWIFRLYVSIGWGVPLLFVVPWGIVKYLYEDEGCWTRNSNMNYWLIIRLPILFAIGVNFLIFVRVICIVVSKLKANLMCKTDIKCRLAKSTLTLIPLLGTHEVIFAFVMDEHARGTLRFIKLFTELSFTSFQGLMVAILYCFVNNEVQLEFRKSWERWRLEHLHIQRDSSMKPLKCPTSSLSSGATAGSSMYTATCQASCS
Assay: Human GLP-1 receptor cell-based assay (flash luminescence, Target Activation phase)
Conditions: CHO chAMPion cells stably co-expressing human GLP-1R, Photina and cAMP-activated calcium channel; agonist activity; normalization by forskolin at 10 μM; ^a) values from single experiment; read-out: EC50 (μM) Target Activation (TA)
Source text: CHO chAMPion cells (Axxam SpA; S. Corazza, Assay Drug Dev. Technol. 2009, 7, 304-307) stably co-expressing the human glucagon-like peptide-1 receptor (GLP-1R), the Ca^2+-sensitive photoprotein PHOTINA® (S. Bovolenta et al., J. Biomol. Screen. 2007, 12, 694-704) and a mutated cAMP-activated calcium ion channel (WO2004/083803 A2) were used to monitor GLP-1R signaling after stimulation with an agonist. Activation of the Gas-coupled GPCR GLP-1R was monitored by measuring the flash luminescence of the Ca^2+-sensitive photoprotein as reporter system with FLIPR^TETRA screening instrumentation (Molecular Devices) upgraded with an ICCD Camera (MDC). For data quality check and data analysis the Genedata SCREENER® software was used.
The reference agonist GLP-1 (glucagon-like peptide-1 amide fragment 7-36) and forskolin were purchased from Sigma (cat. G8147 and F6886, respectively) and prepared according to each ligand's specifications. All handling of ligands were done to ensure proper control throughout the experiments. The steps of the implemented workflow and data analysis are mainly as follows:
Stably transfected chAMPion cells are seeded 10000 c/w in 384 MTP in Dulbecco's MEM/nutrient mix F12 (BioWhittaker cat. BE04-687F/U1; 500 mL) supplemented with sodium pyruvate (BioWhittaker cat. BE13-115E; 5 mL of 100 mM solution), HEPES (BioWhittaker cat. BE17-737E; 6.5 mL of 1M solution), sodium bicarbonate (BioWhittaker cat. BE17-613E; 25 mL of 7.5% solution), fetal bovine serum (Euroclone cat. ECS 0180L; 50 mL), penicillin-streptomycin (BioWhittaker cat. DE17-602E; 5 mL of 100×solution), 1 mg/mL G418 (selection antibiotic for GLP-1R) and 200 μg/mL hygromycin in 25 μL/well for 24 hours. On the day of the experiment, plates are removed from the incubator, freed from the growth medium, equilibrated at room temperature for 1 h, loaded with 30 μl/well of Ca^2+ free Tyrode's buffer containing 20 μM coelentrazine and 500 μM IBMX, and incubated for 4 hours at room temperature.
All compounds were tested at 8 concentrations, starting from 50 μM in quadruplicate, intra-plate (dilution step 1:2.15) to determine EC50 values. After incubation, the volume in all the wells is flattened to 20 αL by aspiration with a CYBIO®-VARIO pipettor. First Injection (10 μL of test compounds in Ca^2+ free Tyrode's buffer, DMSO 0.5% v/v and BSA 0.01%; or 10 μL of reference compounds GLP-1 or forskolin in Ca′ free Tyrode's buffer, DMSO 0.5% v/v and BSA 0.01%) is performed by the FLIPR^TETRA and the kinetic response is optionally monitored over a period of 60 seconds. Incubation for 30 minutes at room temperature is followed by the Second Injection (Tyrode's buffer+10 mM CaCl2)) and the kinetic response is monitored over a period of 60 seconds.
The kinetic response is divided into two distinct phases: monitoring the kinetic response after the First Injection, termed Compound Addition (CA), and monitoring the kinetic response after the Second Injection of 10 mM CaCl2, termed Target Activation (TA). Agonist activity of compounds is evaluated in the Target Activation (TA) phase and it is based on normalization to TA activation by forskolin at 10 μM or GLP-1 at 3.16 nM (EC100)
A good correlation was observed between EC50, data normalized by forskolin and by GLP-1.

Row | Structure (SMILES) | EC50 [µM]
1 | C[C@@H]1NC(=O)[C@H](Cc2ccc(O)cc2)NC(=O)[C@H](CCC(N)=O)NC(=O)[C@H](Cc2cncn2Cc2ccccc2)NC(=O)[C@H](Cc2ccccc2)NC(=O)C2(CCCCC2)NC(=O)[C@H]2CCCN2C(=O)[C@H](Cc2ccc(O)cc2)NC(=O)[C@H](CCC(=O)O)NC(=O)[C@H](Cc2c[nH]c3ccccc23)NC1=O [Ex. 4, cyclo(-Phe-His(Bn)-Gln-Tyr-Ala-Trp-Glu-Tyr-^DPro-Chx-)] (cyclo(F[His(π-Bn)]QYAWEY[dP][Ac6c])) | 0.09 ± 0.02
2 | CC(C)C[C@@H]1NC(=O)[C@H](CC(C)C)NC(=O)[C@H](CCC(=O)O)NC(=O)[C@H](Cc2ccccc2)NC(=O)C2(CCCCC2)NC(=O)[C@H]2CCCN2C(=O)[C@H](Cc2ccccc2)NC(=O)[C@H](CCC(=O)O)NC(=O)[C@H](Cc2c[nH]c3ccccc23)NC(=O)[C@H](C)NC1=O [Ex. 43, cyclo(-Phe-Glu-Leu-Leu-Ala-Trp-Glu-Phe-^DPro-Chx-)] (cyclo(FELLAWEF[dP][Ac6c])) | 4.5 ± 2.6
3 | C[C@@H]1NC(=O)[C@H](Cc2ccc(O)cc2)NC(=O)[C@H](CCC(N)=O)NC(=O)[C@H](Cc2ccc(Oc3ccccc3)cc2)NC(=O)[C@H](Cc2ccccc2)NC(=O)C2(CCCCC2)NC(=O)[C@H]2CCCN2C(=O)[C@H](CCCNC(=N)N)NC(=O)[C@H](CCC(=O)O)NC(=O)[C@H](Cc2c[nH]c3ccccc23)NC1=O [compound 6, cyclo(-Phe-Tyr(Ph)-Gln-Tyr-Ala-Trp-Glu-Arg-^DPro-Chx-)] (cyclo(F[Tyr(Ph)]QYAWER[dP][Ac6c])) | 0.19 ± 0.12

Next, values leading:

Row | EC50 [µM] | Structure (SMILES)
4 | 0.09 ± 0.05 | C[C@@H]1NC(=O)[C@H](Cc2ccc(O)cc2)NC(=O)[C@H](CCC(N)=O)NC(=O)[C@H](Cc2ccccc2)NC(=O)[C@H](Cc2ccccc2)NC(=O)C2(CCCCC2)NC(=O)[C@H]2CCCN2C(=O)[C@H](Cc2ccc(O)cc2)NC(=O)[C@H](CCC(=O)O)NC(=O)[C@H](Cc2c[nH]c3ccccc23)NC1=O [Ex. 1, cyclo(-Phe-Phe-Gln-Tyr-Ala-Trp-Glu-Tyr-^DPro-Chx-)] (cyclo(FFQYAWEY[dP][Ac6c]))
5 | 0.28 ± 0.26 | C[C@@H]1NC(=O)[C@H](Cc2ccc(O)cc2)NC(=O)[C@H](CCC(N)=O)NC(=O)[C@H](Cc2cccnc2)NC(=O)[C@H](Cc2ccccc2)NC(=O)C2(CCCCC2)NC(=O)[C@H]2CCCN2C(=O)[C@H](Cc2ccc(O)cc2)NC(=O)[C@H](CCC(=O)O)NC(=O)[C@H](Cc2c[nH]c3ccccc23)NC1=O [compound 2, cyclo(-Phe-3Pal-Gln-Tyr-Ala-Trp-Glu-Tyr-^DPro-Chx-)] (cyclo(F[3Pal]QYAWEY[dP][Ac6c]))
6 | 0.18 ± 0.18 | C[C@@H]1NC(=O)[C@H](Cc2ccc(O)cc2)NC(=O)[C@H](CCC(N)=O)NC(=O)[C@H](Cc2ccc(N)cc2)NC(=O)[C@H](Cc2ccccc2)NC(=O)C2(CCCCC2)NC(=O)[C@H]2CCCN2C(=O)[C@H](Cc2ccc(O)cc2)NC(=O)[C@H](CCC(=O)O)NC(=O)[C@H](Cc2c[nH]c3ccccc23)NC1=O [compound 3, cyclo(-Phe-Phe(4NH2)-Gln-Tyr-Ala-Trp-Glu-Tyr-^DPro-Chx-)] (cyclo(F[Phe(4-NH2)]QYAWEY[dP][Ac6c]))
7 | 0.15 ± 0.05 | C[C@@H]1NC(=O)[C@H](Cc2ccc(O)cc2)NC(=O)[C@H](CCC(N)=O)NC(=O)[C@H](Cc2ccc(OCc3ccccc3)cc2)NC(=O)[C@H](Cc2ccccc2)NC(=O)C2(CCCCC2)NC(=O)[C@H]2CCCN2C(=O)[C@H](Cc2ccc(O)cc2)NC(=O)[C@H](CCC(=O)O)NC(=O)[C@H](Cc2c[nH]c3ccccc23)NC1=O [compound 5, cyclo(-Phe-Tyr(Bn)-Gln-Tyr-Ala-Trp-Glu-Tyr-^DPro-Chx-)] (cyclo(FY(Bn)QYAWEY[dP][Ac6c]))
8 | 0.57 ± 0.58 | C[C@@H]1NC(=O)[C@H](Cc2ccc(O)cc2)NC(=O)[C@H](CCC(N)=O)NC(=O)[C@H](Cc2ccc(Oc3ccccc3)cc2)NC(=O)[C@H](Cc2ccccc2)NC(=O)C2(CCCCC2)NC(=O)[C@H]2CCCN2C(=O)[C@H](Cc2ccc(O)cc2)NC(=O)[C@H](CCC(=O)O)NC(=O)[C@H](Cc2c[nH]c3ccccc23)NC1=O [compound 7, cyclo(-Phe-Tyr(Ph)-Gln-Tyr-Ala-Trp-Glu-Tyr-^DPro-Chx-)] (cyclo(F[Tyr(Ph)]QYAWEY[dP][Ac6c]))
